Source: publication PMC2858705 (PLoS Pathogens, 2010)
pIC50, pKi: −log10 of the molar value. Where “and” joins values, the source holds several entries; their conditions need not be identical. Equal values may be shown once. Read-outs that look alike come from different tables or passages of the source.

Experiments:
SARS-CoV nsp14 N7-MTase = SARS-CoV nsp14 N7-MTase (Severe acute respiratory syndrome coronavirus, UniProt P0C6X7); assay: biochemical; assay type: biochemical
[1] = molecular target: SARS-CoV nsp10/nsp16 2'O-MTase (Severe acute respiratory syndrome coronavirus, UniProt P0C6X7); assay: biochemical; assay type: biochemical
SARS-CoV = details: infected cells; cited from earlier work
VV:2'O-MTase = details: cited from earlier work
VV:N7-MTase = details: cited from earlier work
DV:NS5MTase = details: read-out: IC50 2'O-MTase activity of DV:NS5MTase; cited from earlier work

SMILES: O=C(O)C1=CC(=C(c2ccc(O)c(C(=O)O)c2)c2ccc(O)c(C(=O)O)c2)C=CC1=O [ATA, aurintricarboxylic acid]
- IC50 N7-MTase activity of nsp14 (SARS-CoV nsp14 N7-MTase): micromolar range
- inhibition of nsp14 N7-MTase at 100 µM (in words) (SARS-CoV nsp14 N7-MTase): efficiently inhibited
- pIC50 (SARS-CoV nsp14 N7-MTase; IC50 N7-MTase activity of nsp14): 5.19 and 5.68
- IC50 2'O-MTase activity of nsp10/nsp16 [1]: micromolar range
- inhibition of nsp16/nsp10 2'O-MTase at 100 µM (in words) [1]: efficiently inhibited
- pIC50 ([1]; IC50 2'O-MTase activity of nsp10/nsp16): 5.68 and 5.19
- inhibition of SARS-CoV replication (SARS-CoV): inhibit SARS-CoV replication

SMILES: Nc1ncnc2c1ncn2[C@@H]1O[C@H](CSCC[C@H](N)C(=O)O)[C@@H](O)[C@H]1O [AdoHcy, S-adenosyl-l-homocysteine]
- inhibition of nsp14 N7-MTase at 100 µM (in words) (SARS-CoV nsp14 N7-MTase): efficiently inhibited
- pIC50 (SARS-CoV nsp14 N7-MTase; read-out: IC50 N7-MTase activity of nsp14): 4.80
- pKi (VV:2'O-MTase): 6.30
- inhibition of nsp16/nsp10 2'O-MTase at 100 µM (in words) [1]: efficiently inhibited
- pIC50 ([1]; read-out: IC50 2'O-MTase activity of nsp10/nsp16): 4.92
- pKi (VV:N7-MTase): 6.00

SMILES: Nc1nc2c(ncn2[C@@H]2O[C@H](COP(=O)(O)OP(=O)(O)OP(=O)(O)OC[C@H]3O[C@@H](n4cnc5c(N)ncnc54)[C@H](O)[C@@H]3O)[C@@H](O)[C@H]2O)c(=O)[nH]1 [GpppA]
- inhibition of nsp14 N7-MTase at 100 µM (SARS-CoV nsp14 N7-MTase): 50%
- inhibition of nsp16/nsp10 2'O-MTase at 100 µM [1]: 50%

SMILES: Cn1c[n+]([C@@H]2O[C@H](COP(=O)(O)OP(=O)(O)OP(=O)(O)OC[C@H]3O[C@@H](n4cnc5c(N)ncnc54)[C@H](O)[C@@H]3O)[C@@H](O)[C@H]2O)c2nc(N)[nH]c(=O)c21 [^7MeGpppA]
- inhibition of nsp14 N7-MTase at 100 µM (SARS-CoV nsp14 N7-MTase): 50%
- inhibition of nsp16/nsp10 2'O-MTase at 100 µM [1]: 50%

SMILES: Nc1ncnc2c1ncn2[C@@H]1O[C@H](C[C@@H](N)CC[C@H](N)C(=O)O)[C@@H](O)[C@H]1O [sinefungin, adenosyl-ornithine]
- pIC50 (DV:NS5MTase): 6.38 and 6.20
- pIC50 (VV:2'O-MTase): 7.40
- pIC50 (VV:N7-MTase): 7.92
